# Data from PubChem BioAssay (NCI).
#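 A five-concentration, 48-hour dose response in 96-well plates underlies each endpoint, interpolated linearly between surrounding concentrations. GI50 = concentration required for 50% inhibition of growth. TGI: concentration producing complete growth inhibition.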
# Columns and labels:
# Assay in all cases: DTP human tumour cell line panel, 48 h
# [1] = test system: MOLT-4 leukemia
# [2] = test system: 786-0 renal
# [3] = test system: LOX IMVI melanoma
# [4] = test system: SF-539 CNS
# [5] = test system: KM12 colon
# [6] = test system: HOP-92 NSCLC
# [7] = test system: PC-3 prostate
# [8] = test system: HT29 colon
# [9] = test system: SK-OV-3 ovarian
# [10] = test system: HS 578T breast
SMILES,GI50 [1],TGI [1],GI50 [2],TGI [2],GI50 [3],TGI [3],GI50 [4],TGI [4],GI50 [5],TGI [5],GI50 [6],TGI [6],GI50 [7],TGI [7],GI50 [8],TGI [8],GI50 [9],TGI [9],GI50 [10],TGI [10]
O=c1c(O)cccn1CCCN(CCCn1cccc(O)c1=O)CCn1cccc(O)c1=O,1.79 µM,> 100 µM,7.81 µM,> 100 µM,2.13 µM,> 100 µM,3.12 µM,> 100 µM,3.12 µM,> 100 µM,6.1 µM,> 100 µM,> 100 µM,> 100 µM,29.5 µM,> 100 µM,3.37 µM,> 100 µM,–,–
COc1cc(/C=C\c2ccncc2)cc(OC)c1OC,–,> 100 µM,–,> 100 µM,–,> 100 µM,–,> 100 µM,–,> 100 µM,–,> 100 µM,–,–,–,> 100 µM,–,–,–,–
COc1ccc(-c2onc(-c3c(C)cc(C)cc3C)c2C2=NCCN2)cc1,–,> 100 µM,–,> 100 µM,–,> 100 µM,–,44.1 µM,–,> 100 µM,–,–,–,–,–,> 100 µM,–,> 100 µM,–,–
COc1ccc2c(c1)C(=O)c1c-2n(CCCN)c(=O)c2cc([N+](=O)[O-])ccc12,< 0.01 µM,< 0.01 µM,< 0.01 µM,< 0.01 µM,< 0.01 µM,< 0.01 µM,< 0.01 µM,< 0.01 µM,1.5 µM,3.46 µM,–,–,< 0.01 µM,1.79 µM,–,–,< 0.01 µM,< 0.01 µM,1.81 µM,4.44 µM
O=C(N/C(=C\c1cc(Cl)ccc1Cl)c1nc2ccc(Cl)cc2[nH]1)c1ccccc1,–,37.2 µM,–,71.9 µM,–,26.4 µM,–,35.1 µM,–,29.4 µM,–,24.4 µM,–,–,–,30.9 µM,–,51.8 µM,–,–
CC(=O)[CH-]C(=O)Nc1ccccc1.CC(=O)[CH-]C(=O)Nc1ccccc1.CC[O-].CC[O-].[Ti+4],> 100 µM,> 100 µM,> 100 µM,> 100 µM,> 100 µM,> 100 µM,> 100 µM,> 100 µM,> 100 µM,> 100 µM,> 100 µM,> 100 µM,–,–,> 100 µM,> 100 µM,> 100 µM,> 100 µM,–,–
Cc1ccc(NC(=O)CC2SC(N)=NC2=O)cc1C (stereo unspecified),–,> 100 µM,–,> 100 µM,–,> 100 µM,–,> 100 µM,–,> 100 µM,–,> 100 µM,–,–,–,> 100 µM,–,> 100 µM,–,–
C#C[C@H]1CCCCCC1O (stereo partly specified),–,> 100 µM,–,> 100 µM,–,> 100 µM,–,> 100 µM,–,> 100 µM,–,> 100 µM,–,–,–,> 100 µM,–,> 100 µM,–,–
Cc1nc2c(sc(=S)n2-c2ccccc2)c2nc3ccccc3n12,–,> 100 µM,–,> 100 µM,–,> 100 µM,–,> 100 µM,–,> 100 µM,–,–,–,–,–,> 100 µM,–,> 100 µM,–,–
Nc1ncnc2c1nnn2C1C=C(CO)C(O)C1O (stereo unspecified),–,> 100 µM,–,> 100 µM,–,> 55.3 µM,–,> 100 µM,–,> 100 µM,–,> 80.2 µM,–,–,–,> 100 µM,–,> 100 µM,–,–
O=C1c2ccccc2C(=O)N1C1(C(=O)NC2(C(=O)O)CCCC2)CCCC1,–,> 100 µM,–,> 100 µM,–,> 100 µM,–,–,–,> 100 µM,–,–,–,> 100 µM,–,> 100 µM,–,> 100 µM,–,> 100 µM
COC/N=C(/N)NC#N,–,> 100 µM,–,> 100 µM,–,–,–,> 100 µM,–,> 100 µM,–,> 100 µM,–,–,–,> 100 µM,–,> 100 µM,–,–
NC(=O)C12CC3CC(CC(Br)(C3)C1)C2,–,> 100 µM,–,> 100 µM,–,> 100 µM,–,> 100 µM,–,> 100 µM,–,> 100 µM,–,–,–,> 100 µM,–,> 100 µM,–,–
COc1ccc(-c2ccc(/C=N/n3c(COc4ccccc4Cl)n[nH]c3=S)o2)c([N+](=O)[O-])c1,–,–,28.4 µM,> 100 µM,17.6 µM,45.8 µM,–,–,20.9 µM,49.5 µM,–,–,23.6 µM,79.4 µM,41.1 µM,> 100 µM,35.4 µM,> 100 µM,32.5 µM,98.7 µM
CCC[CH2][Sn]([CH2]CCC)([O]C(=O)/C=C/c1ccccc1F)[O]C(=O)/C=C/c1ccccc1F,0.267 µM,1.71 µM,0.384 µM,1.17 µM,0.289 µM,0.906 µM,1.27 µM,2.56 µM,1.38 µM,2.72 µM,0.415 µM,1.37 µM,–,–,1.58 µM,3.07 µM,2.04 µM,4.48 µM,–,–
